In patent US20090163461A1, “Ligand for Vesicular Acetylcholine Transporter” (priority 2005, published 2009):

Columns and labels:
[1] = Tissue distribution of radioactivity after intravenous injection in rats; type: in vivo; settings: rat
Method: From the tail vein of each rat, an injection containing 20 MBq of (−)-[^11C]-o-MeVES (0.2 ml) was administered. At 5 minutes, 15 minutes, 30 minutes, and 60 minutes after administration, the rats were killed by cervical dislocation, and blood was drawn from the heart using a syringe, after which tissues such as the heart, lungs, liver, and brain were extirpated, and the radioactivity in each tissue was measured using a gamma counter. Each tissue was also weighed.

VAChT = experiment: PET brain imaging of learning disability model (neurolysis) monkeys and healthy monkeys; type: in vivo, monkey; settings: 185-740 MBq i.v., images 15 minutes to 60 minutes after administration
Method: 185-740 MBq of (−)-[^11C]-o-MeVES was administered to a vein of each of learning disability model monkeys (neurolysis monkeys) created by selectively destroying the p75NTR positive cells (ACh neurons) in the right hemisphere of the brain with 192-Saporin (manufactured by Advanced Targeting Systems) and healthy monkeys, and image data were collected using PET for animals (PET; manufactured by Hamamatsu Photonics K.K., SHR-7700) at 10 seconds to 91 minutes after administration. The image data obtained at 15 minutes to 60 minutes after administration were picturized; the photographs thus obtained are shown in FIG. 4.

VAChT in the brain = target: T1, VAChT in the brain (Rattus norvegicus, UniProt Q62666); experiment: Rat brain ex vivo autoradiography; type: in vivo; settings: 110-120 MBq i.v., 15 or 30 minutes after administration
T1 construct: from tissue; host or cells: brain of living rats, tissue counted or sectioned after killing
T1 sequence (Q62666 1-530): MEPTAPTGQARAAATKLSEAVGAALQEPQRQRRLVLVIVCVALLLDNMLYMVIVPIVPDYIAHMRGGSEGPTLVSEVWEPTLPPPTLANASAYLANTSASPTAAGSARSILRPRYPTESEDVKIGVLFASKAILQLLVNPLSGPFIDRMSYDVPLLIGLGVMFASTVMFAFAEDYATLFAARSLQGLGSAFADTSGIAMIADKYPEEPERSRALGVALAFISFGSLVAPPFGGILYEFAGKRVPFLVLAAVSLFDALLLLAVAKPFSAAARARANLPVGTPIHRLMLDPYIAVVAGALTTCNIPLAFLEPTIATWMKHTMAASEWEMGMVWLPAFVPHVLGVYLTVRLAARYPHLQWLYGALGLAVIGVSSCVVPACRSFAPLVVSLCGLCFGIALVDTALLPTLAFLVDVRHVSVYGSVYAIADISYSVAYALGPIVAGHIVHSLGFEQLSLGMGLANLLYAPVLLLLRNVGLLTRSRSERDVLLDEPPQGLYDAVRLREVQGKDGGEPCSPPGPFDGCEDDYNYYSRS
Method: To the caudal vein of each rat, 110-120 MBq of (−)-[^11C]-o-MeVES was administered, and the rats were killed by cervical dislocation and had the brain extirpated 15 minutes after administration for the first rat, or 30 minutes after administration for the second rat. The extirpated brain was immediately frozen with dry ice, and a brain section 20 μm in thickness was prepared using a cryomicrotome. The brain section was mounted on a glass plate, this section was dried on a hot plate (60° C.), and images of radioactivity distribution were obtained by radioluminography.

[11CH3]c1ccccc1C1CCN(C2CCCC[C@H]2O)CC1 (single isomer, unassigned; (-)) [(−)-[^11C]-o-MeVES, (−)-[^11C]-2-(4-(2-methylphenyl)piperidino)cyclohexanol]
Radioactivity level blood 5 min ([1]; i.v. 20 MBq, blood, 5 min, % of administered radioactivity per gram of tissue, mean ± S.D. n = 4-6): 0.45 ± 0.04%
Radioactivity level blood 15 min ([1]; i.v. 20 MBq, blood, 15 min, % of administered radioactivity per gram of tissue, mean ± S.D. n = 4-6): 0.27 ± 0.03%
Radioactivity level blood 30 min ([1]; i.v. 20 MBq, blood, 30 min, % of administered radioactivity per gram of tissue, mean ± S.D. n = 4-6): 0.24 ± 0.02%
Radioactivity level blood 60 min ([1]; i.v. 20 MBq, blood, 60 min, % of administered radioactivity per gram of tissue, mean ± S.D. n = 4-6): 0.18 ± 0.02%
Radioactivity level brain 5 min ([1]; i.v. 20 MBq, brain, 5 min, % of administered radioactivity per gram of tissue, mean ± S.D. n = 4-6): 5.47 ± 0.44%
Radioactivity level brain 15 min ([1]; i.v. 20 MBq, brain, 15 min, % of administered radioactivity per gram of tissue, mean ± S.D. n = 4-6): 4.54 ± 0.54%
Radioactivity level brain 30 min ([1]; i.v. 20 MBq, brain, 30 min, % of administered radioactivity per gram of tissue, mean ± S.D. n = 4-6): 4.71 ± 0.45%
Radioactivity level brain 60 min ([1]; i.v. 20 MBq, brain, 60 min, % of administered radioactivity per gram of tissue, mean ± S.D. n = 4-6): 3.86 ± 0.28%
Radioactivity level heart 5 min ([1]; i.v. 20 MBq, heart, 5 min, % of administered radioactivity per gram of tissue, mean ± S.D. n = 4-6): 3.37 ± 0.30%
Radioactivity level heart 15 min ([1]; i.v. 20 MBq, heart, 15 min, % of administered radioactivity per gram of tissue, mean ± S.D. n = 4-6): 1.82 ± 0.19%
Radioactivity level heart 30 min ([1]; i.v. 20 MBq, heart, 30 min, % of administered radioactivity per gram of tissue, mean ± S.D. n = 4-6): 1.52 ± 0.11%
Radioactivity level heart 60 min ([1]; i.v. 20 MBq, heart, 60 min, % of administered radioactivity per gram of tissue, mean ± S.D. n = 4-6): 0.96 ± 0.02%
Radioactivity level kidney 5 min ([1]; i.v. 20 MBq, kidney, 5 min, % of administered radioactivity per gram of tissue, mean ± S.D. n = 4-6): 11.10 ± 4.31%
Radioactivity level kidney 15 min ([1]; i.v. 20 MBq, kidney, 15 min, % of administered radioactivity per gram of tissue, mean ± S.D. n = 4-6): 7.52 ± 0.40%
Radioactivity level kidney 30 min ([1]; i.v. 20 MBq, kidney, 30 min, % of administered radioactivity per gram of tissue, mean ± S.D. n = 4-6): 6.02 ± 0.09%
Radioactivity level kidney 60 min ([1]; i.v. 20 MBq, kidney, 60 min, % of administered radioactivity per gram of tissue, mean ± S.D. n = 4-6): 4.15 ± 0.50%
Radioactivity level liver 5 min ([1]; i.v. 20 MBq, liver, 5 min, % of administered radioactivity per gram of tissue, mean ± S.D. n = 4-6): 2.58 ± 0.23%
Radioactivity level liver 15 min ([1]; i.v. 20 MBq, liver, 15 min, % of administered radioactivity per gram of tissue, mean ± S.D. n = 4-6): 2.93 ± 0.38%
Radioactivity level liver 30 min ([1]; i.v. 20 MBq, liver, 30 min, % of administered radioactivity per gram of tissue, mean ± S.D. n = 4-6): 3.22 ± 0.76%
Radioactivity level liver 60 min ([1]; i.v. 20 MBq, liver, 60 min, % of administered radioactivity per gram of tissue, mean ± S.D. n = 4-6): 3.28 ± 0.32%
Radioactivity level lung 5 min ([1]; i.v. 20 MBq, lung, 5 min, % of administered radioactivity per gram of tissue, mean ± S.D. n = 4-6): 16.55 ± 2.56%
Radioactivity level lung 15 min ([1]; i.v. 20 MBq, lung, 15 min, % of administered radioactivity per gram of tissue, mean ± S.D. n = 4-6): 10.38 ± 2.48%
Radioactivity level lung 30 min ([1]; i.v. 20 MBq, lung, 30 min, % of administered radioactivity per gram of tissue, mean ± S.D. n = 4-6): 8.74 ± 0.34%
Radioactivity level lung 60 min ([1]; i.v. 20 MBq, lung, 60 min, % of administered radioactivity per gram of tissue, mean ± S.D. n = 4-6): 4.81 ± 0.76%
Radioactivity level muscle 5 min ([1]; i.v. 20 MBq, muscle, 5 min, % of administered radioactivity per gram of tissue, mean ± S.D. n = 4-6): 1.57 ± 0.27%
Radioactivity level muscle 15 min ([1]; i.v. 20 MBq, muscle, 15 min, % of administered radioactivity per gram of tissue, mean ± S.D. n = 4-6): 1.42 ± 0.44%
Radioactivity level muscle 30 min ([1]; i.v. 20 MBq, muscle, 30 min, % of administered radioactivity per gram of tissue, mean ± S.D. n = 4-6): 1.18 ± 0.24%
Radioactivity level muscle 60 min ([1]; i.v. 20 MBq, muscle, 60 min, % of administered radioactivity per gram of tissue, mean ± S.D. n = 4-6): 1.00 ± 0.16%
Radioactivity level pancreas 5 min ([1]; i.v. 20 MBq, pancreas, 5 min, % of administered radioactivity per gram of tissue, mean ± S.D. n = 4-6): 8.44 ± 1.93%
Radioactivity level pancreas 15 min ([1]; i.v. 20 MBq, pancreas, 15 min, % of administered radioactivity per gram of tissue, mean ± S.D. n = 4-6): 12.13 ± 2.23%
Radioactivity level pancreas 30 min ([1]; i.v. 20 MBq, pancreas, 30 min, % of administered radioactivity per gram of tissue, mean ± S.D. n = 4-6): 11.53 ± 2.67%
Radioactivity level pancreas 60 min ([1]; i.v. 20 MBq, pancreas, 60 min, % of administered radioactivity per gram of tissue, mean ± S.D. n = 4-6): 10.67 ± 1.22%
Radioactivity level small intestine 5 min ([1]; i.v. 20 MBq, small intestine, 5 min, % of administered radioactivity per gram of tissue, mean ± S.D. n = 4-6): 6.19 ± 0.58%
Radioactivity level small intestine 15 min ([1]; i.v. 20 MBq, small intestine, 15 min, % of administered radioactivity per gram of tissue, mean ± S.D. n = 4-6): 8.76 ± 1.66%
Radioactivity level small intestine 30 min ([1]; i.v. 20 MBq, small intestine, 30 min, % of administered radioactivity per gram of tissue, mean ± S.D. n = 4-6): 8.48 ± 1.85%
Radioactivity level small intestine 60 min ([1]; i.v. 20 MBq, small intestine, 60 min, % of administered radioactivity per gram of tissue, mean ± S.D. n = 4-6): 8.90 ± 0.50%
Radioactivity level spleen 5 min ([1]; i.v. 20 MBq, spleen, 5 min, % of administered radioactivity per gram of tissue, mean ± S.D. n = 4-6): 4.97 ± 1.06%
Radioactivity level spleen 15 min ([1]; i.v. 20 MBq, spleen, 15 min, % of administered radioactivity per gram of tissue, mean ± S.D. n = 4-6): 5.90 ± 0.51%
Radioactivity level spleen 30 min ([1]; i.v. 20 MBq, spleen, 30 min, % of administered radioactivity per gram of tissue, mean ± S.D. n = 4-6): 5.56 ± 0.52%
Radioactivity level spleen 60 min ([1]; i.v. 20 MBq, spleen, 60 min, % of administered radioactivity per gram of tissue, mean ± S.D. n = 4-6): 4.24 ± 0.35%
brain accumulation ([1]; i.v., 5-60 min): retainable
organ accumulation / exposure ([1]; i.v., 5-60 min): no organs showing particularly high accumulation
RI accumulation in healthy monkeys (PET) (VAChT; healthy monkeys): no change in the accumulation
RI accumulation in the cerebral cortex on the neurolysis side compared to the healthy side (PET) (VAChT; neurolysis monkeys): significant reduction in RI accumulation
local distribution in the brain (autoradiography) (VAChT in the brain): agreed well with the in vitro local distribution of (−)-[^3H]-vesamicol
